Values joined by “and” are separate entries in the source; they are usually repeats but may differ in a detail not shown here. Equal entries are not always repeated. Toxic doses and inconclusive results are not listed.
Test system: CD2F1 mice, ip Colon 26 adenocarcinoma, median survival T/C
Assay: NCI In Vivo Anticancer Drug Screen. Data for tumor model Colon 26 Adenocarcinoma (intraperitoneal) in CD2F1 (CDF1) mice
Conditions: endpoint: median survival time, higher = longer survival
Procedure: The antitumor activity of compounds was measured in mice bearing transplantable tumors. Survival or tumor size were measured and the results are expressed as the measurement made in the treated group (T) divided by the measurement made in the vehicle treated control group (C). The tumor model used in this assay is Colon 26 Adenocarcinoma (intraperitoneal) in CD2F1 (CDF1) mice

[1] = dose: 40.0 mg/kg/injection, schedule: Q04DX003 (ip), vehicle: saline with Tween-80
[2] = dose: 25.0 mg/kg/injection, schedule: Q04DX003 (ip), vehicle: saline with Tween-80
[3] = dose: 50.0 mg/kg/injection, schedule: Q04DX003 (ip), vehicle: saline with Tween-80
[4] = dose: 25.0 mg/kg/injection, schedule: Q04DX003 (ip), vehicle: Klucel (hydroxypropylcellulose) (HPC)

Oc1cc2c3c(c1)c1cc4c(cc1c[n+]3CC2)OCO4
T/C (dose: 6.25 mg/kg/injection, schedule: Q04DX003 (ip), vehicle: distilled water + Tween-80): 118 % of control | T/C (dose: 100.0 mg/kg/injection, schedule: Q04DX003 (ip), vehicle: distilled water + Tween-80): 118 % of control

CNc1nc(N(C)C)nc(N(C)C)n1
T/C (dose: 6.25 mg/kg/injection, schedule: Q04DX003 (ip), vehicle: water): 105 % of control | T/C (dose: 12.5 mg/kg/injection, schedule: Q04DX003 (ip), vehicle: water): 101 % of control | T/C (dose: 25.0 mg/kg/injection, schedule: Q04DX003 (ip), vehicle: water): 98 % of control | T/C (dose: 50.0 mg/kg/injection, schedule: Q04DX003 (ip), vehicle: water): 112 % of control | T/C (dose: 100.0 mg/kg/injection, schedule: Q04DX003 (ip), vehicle: water): 121 % of control | T/C (dose: 200.0 mg/kg/injection, schedule: Q04DX003 (ip), vehicle: water): 110 % of control

O=C1C=CN(C2OC(CO)C(O)C2O)C(=O)C1 (stereo not given)
T/C (dose: 25.0 mg/kg/injection, schedule: Q01DX005 (ip), vehicle: saline): 109 % of control | T/C (dose: 25.0 mg/kg/injection, schedule: Q04DX003 (ip), vehicle: saline): 112 % of control | T/C (dose: 50.0 mg/kg/injection, schedule: Q01DX005 (ip), vehicle: saline): 102 % of control | T/C (dose: 50.0 mg/kg/injection, schedule: Q04DX003 (ip), vehicle: saline): 109 % of control | T/C (dose: 100.0 mg/kg/injection, schedule: Q01DX005 (ip), vehicle: saline): 98 % of control | T/C (dose: 100.0 mg/kg/injection, schedule: Q04DX003 (ip), vehicle: saline): 106 % of control | T/C (dose: 200.0 mg/kg/injection, schedule: Q01DX005 (ip), vehicle: saline): 106 % of control | T/C (dose: 200.0 mg/kg/injection, schedule: Q04DX003 (ip), vehicle: saline): 102 % of control | T/C (dose: 400.0 mg/kg/injection, schedule: Q01DX005 (ip), vehicle: saline): 102 % of control | T/C (dose: 400.0 mg/kg/injection, schedule: Q04DX003 (ip), vehicle: saline): 109 % of control

COc1cc2c3cc1Oc1c(O)c(OC)cc4c1[C@H](Cc1ccc(cc1)Oc1cc(ccc1O)C[C@H]3N(C)CC2)N(C)CC4
T/C (dose: 5.0 mg/kg/injection, schedule: Q04DX003 (ip), vehicle: distilled water + Tween-80): 95 % of control | T/C (dose: 10.0 mg/kg/injection, schedule: Q04DX003 (ip), vehicle: distilled water + Tween-80): 103 % of control | T/C (dose: 20.0 mg/kg/injection, schedule: Q04DX003 (ip), vehicle: distilled water + Tween-80): 97 % of control | T/C (dose: 40.0 mg/kg/injection, schedule: Q04DX003 (ip), vehicle: distilled water + Tween-80): 115 % of control | T/C [1]: 95 % of control

CCC[P+](c1ccccc1)(c1ccccc1)c1ccccc1
T/C (dose: 3.12 mg/kg/injection, schedule: Q04DX003 (ip), vehicle: saline with Tween-80): 112 % of control | T/C (dose: 6.25 mg/kg/injection, schedule: Q04DX003 (ip), vehicle: saline with Tween-80): 107 % of control | T/C (dose: 12.5 mg/kg/injection, schedule: Q04DX003 (ip), vehicle: saline with Tween-80): 104 % of control | T/C [2]: 110 % of control | T/C [3]: 110 % of control

CC1(CO)C(O)CCC2(C)C1CCC1CC3CC12CCC3(O)CO (stereo not given)
T/C (dose: 25.0 mg/kg/injection, schedule: Q01DX009 (ip), vehicle: saline with Tween-80): 167 % of control | T/C (dose: 50.0 mg/kg/injection, schedule: Q04DX003 (oral), vehicle: saline with Tween-80): 105 % of control and 106 % of control and 113 % of control | T/C (dose: 100.0 mg/kg/injection, schedule: Q04DX003 (oral), vehicle: saline with Tween-80): 101 % of control and 119 % of control and 100 % of control | T/C (dose: 600.0 mg/kg/injection, schedule: Q04DX003 (ip), vehicle: saline with Tween-80): 100 % of control | T/C (dose: 1600.0 mg/kg/injection, schedule: Q04DX003 (oral), vehicle: saline with Tween-80): 106 % of control

C=C1C(=O)C23C(O)CC4C5(C)CCCC4(C(O)OC5)C2C(OC(C)=O)CC1C3O (stereo not given)
T/C (dose: 8.0 mg/kg/injection, schedule: Q04DX002 (ip), vehicle: saline with Tween-80): 116 % of control | T/C (dose: 16.0 mg/kg/injection, schedule: Q04DX002 (ip), vehicle: saline with Tween-80): 109 % of control | T/C (dose: 32.0 mg/kg/injection, schedule: Q04DX002 (ip), vehicle: saline with Tween-80): 92 % of control | T/C (dose: 64.0 mg/kg/injection, schedule: Q04DX002 (ip), vehicle: saline with Tween-80): 103 % of control

Cc1ccc(C(=O)[O][Hg][CH2]C2COC([CH2][Hg][O]C(=O)c3ccc(C)cc3)CO2)cc1 (stereo not given)
T/C (dose: 12.5 mg/kg/injection, schedule: Q04DX003 (ip), vehicle: Klucel (hydroxypropylcellulose) (HPC)): 104 % of control | T/C [4]: 92 % of control

C[C@]12C=CC(=O)C=C1CC[C@@H]1[C@@H]2C(=O)C[C@@]2(C)[C@H]1CC[C@]2(O)C(=O)CO
T/C [4]: 105 % of control | T/C (dose: 50.0 mg/kg/injection, schedule: Q04DX003 (ip), vehicle: Klucel (hydroxypropylcellulose) (HPC)): 100 % of control | T/C (dose: 100.0 mg/kg/injection, schedule: Q04DX003 (ip), vehicle: Klucel (hydroxypropylcellulose) (HPC)): 100 % of control | T/C (dose: 200.0 mg/kg/injection, schedule: Q04DX003 (ip), vehicle: Klucel (hydroxypropylcellulose) (HPC)): 96 % of control | T/C (dose: 400.0 mg/kg/injection, schedule: Q04DX003 (ip), vehicle: Klucel (hydroxypropylcellulose) (HPC)): 98 % of control

C[C@]12CCC(=O)[C@@](C)(CO)[C@@H]1[C@H](O)C[C@H]1C[C@@H]3C[C@@]12CC[C@]3(O)CO
T/C (dose: 5.0 mg/kg/injection, schedule: Q04DX003 (ip), vehicle: saline with Tween-80): 98 % of control | T/C (dose: 10.0 mg/kg/injection, schedule: Q04DX003 (ip), vehicle: saline with Tween-80): 96 % of control | T/C (dose: 20.0 mg/kg/injection, schedule: Q04DX003 (ip), vehicle: saline with Tween-80): 90 % of control | T/C [1]: 90 % of control | T/C (dose: 80.0 mg/kg/injection, schedule: Q04DX003 (ip), vehicle: saline with Tween-80): 100 % of control

NC(C/[N+]([O-])=N/O)C(=O)O (stereo not given)
T/C (dose: 8.78 mg/kg/injection, schedule: Q01DX010 (ip), vehicle: alkali diluted with saline): 99 % of control | T/C (dose: 13.2 mg/kg/injection, schedule: Q01DX010 (ip), vehicle: alkali diluted with saline): 100 % of control | T/C (dose: 19.8 mg/kg/injection, schedule: Q01DX010 (ip), vehicle: alkali diluted with saline): 96 % of control | T/C (dose: 29.6 mg/kg/injection, schedule: Q01DX010 (ip), vehicle: alkali diluted with saline): 113 % of control | T/C (dose: 44.4 mg/kg/injection, schedule: Q01DX010 (ip), vehicle: alkali diluted with saline): 104 % of control | T/C (dose: 66.7 mg/kg/injection, schedule: Q01DX010 (ip), vehicle: alkali diluted with saline): 95 % of control

NNC(=O)c1ccncc1
T/C (dose: 72.0 mg/kg/injection, schedule: Q04DX002 (ip), vehicle: saline): 103 % of control | T/C (dose: 144.0 mg/kg/injection, schedule: Q04DX002 (ip), vehicle: saline): 102 % of control

C[C@]12CC[C@@H]3c4ccc(O)cc4CC[C@H]3[C@@H]1CC[C@@H]2O
T/C (dose: 6.25 mg/kg/injection, schedule: Q04DX002 (ip), vehicle: Klucel (hydroxypropylcellulose) (HPC)): 103 % of control | T/C (dose: 12.5 mg/kg/injection, schedule: Q04DX002 (ip), vehicle: Klucel (hydroxypropylcellulose) (HPC)): 95 % of control | T/C (dose: 25.0 mg/kg/injection, schedule: Q04DX002 (ip), vehicle: Klucel (hydroxypropylcellulose) (HPC)): 94 % of control | T/C (dose: 50.0 mg/kg/injection, schedule: Q04DX002 (ip), vehicle: Klucel (hydroxypropylcellulose) (HPC)): 103 % of control | T/C (dose: 100.0 mg/kg/injection, schedule: Q04DX002 (ip), vehicle: Klucel (hydroxypropylcellulose) (HPC)): 100 % of control | T/C (dose: 200.0 mg/kg/injection, schedule: Q04DX002 (ip), vehicle: Klucel (hydroxypropylcellulose) (HPC)): 98 % of control

O=[N+]([O-])/C=C\c1ccc2c(c1)OCO2
T/C (dose: 3.12 mg/kg/injection, schedule: Q04DX003 (ip), vehicle: Klucel (hydroxypropylcellulose) (HPC)): 87 % of control | T/C (dose: 6.25 mg/kg/injection, schedule: Q04DX003 (ip), vehicle: Klucel (hydroxypropylcellulose) (HPC)): 105 % of control | T/C [4]: 90 % of control

O=C(N/N=C\c1cc(Br)cc(Br)c1O)N/N=C/c1cc(Br)cc(Br)c1O
T/C [2]: 118 % of control | T/C [3]: 102 % of control | T/C (dose: 100.0 mg/kg/injection, schedule: Q04DX003 (ip), vehicle: saline with Tween-80): 102 % of control | T/C (dose: 200.0 mg/kg/injection, schedule: Q04DX003 (ip), vehicle: saline with Tween-80): 123 % of control

From PubChem BioAssay AID210 (DTP/NCI, 2004)
